Test results from ChEMBL document CHEMBL3046822, “Synthesis, antiplatelet aggregation activity, and molecular modeling study of novel substituted-piperazine analogues” (2011).
Active and inactive are the calls of the source. The rule behind the calls is not given here.

Experiments:
Platelet [1] = test: Antiaggregating activity in Homo sapiens (human) platelet rich plasma assessed as inhibition of arachidonic acid-induced platelet aggregation at 1 uM incubated for 4 min prior to arachidonic acid-induction measured for 5.5 min by turbidometric analysis; format: functional, cell-free
Platelet [2] = test: Antiaggregating activity in Homo sapiens (human) platelet rich plasma assessed as inhibition of adrenaline-induced platelet aggregation at 0.6 uM incubated for 4 min prior to adrenaline-induction measured for 5.5 min by turbidometric analysis; format: functional, cell-free
Platelet [3] = test: Antiaggregating activity in Homo sapiens (human) platelet rich plasma assessed as inhibition of adrenaline-induced platelet aggregation at 3 uM incubated for 4 min prior to adrenaline-induction measured for 5.5 min by turbidometric analysis; format: functional, cell-free
Platelet [4] = test: Antiaggregating activity in Homo sapiens (human) platelet rich plasma assessed as inhibition of adrenaline-induced platelet aggregation at 1 uM incubated for 4 min prior to adrenaline-induction measured for 5.5 min by turbidometric analysis; format: functional, cell-free
[5] = Antiaggregating activity in Homo sapiens (human) platelet rich plasma assessed as ristocetin-induced platelet aggregation at 0.6 uM incubated for 4 min prior to ristocetin-induction measured for 5.5 min by turbidometric analysis (reference value: 65 to 99%); format: functional
[6] = Antiaggregating activity in Homo sapiens (human) platelet rich plasma assessed as ristocetin-induced platelet aggregation at 1 uM incubated for 4 min prior to ristocetin-induction measured for 5.5 min by turbidometric analysis (reference value: 65 to 99%); format: functional
Platelet [7] = test: Antiaggregating activity in Homo sapiens (human) platelet rich plasma assessed as inhibition of ristocetin-induced platelet aggregation at 3 uM incubated for 4 min prior to ristocetin-induction measured for 5.5 min by turbidometric analysis; format: functional, cell-free
[8] = Antiaggregating activity in Homo sapiens (human) platelet rich plasma assessed as ADP-induced platelet aggregation at 0.6 uM incubated for 4 min prior to ADP-induction measured for 5.5 min by turbidometric analysis (reference value: 54 to 88%); format: functional
[9] = Antiaggregating activity in Homo sapiens (human) platelet rich plasma assessed as ADP-induced platelet aggregation at 1 uM incubated for 4 min prior to ADP-induction measured for 5.5 min by turbidometric analysis (reference value: 54 to 88%); format: functional
Platelet [10] = test: Antiaggregating activity in Homo sapiens (human) platelet rich plasma assessed as inhibition of ADP-induced platelet aggregation at 3 uM incubated for 4 min prior to ADP-induction measured for 5.5 min by turbidometric analysis; format: functional, cell-free
[11] = Antiaggregating activity in Homo sapiens (human) platelet rich plasma assessed as collagen-induced platelet aggregation at 0.6 uM incubated for 4 min prior to collagen-induction measured for 5.5 min by turbidometric analysis (reference value: 50 to 98%); format: functional
[12] = Antiaggregating activity in Homo sapiens (human) platelet rich plasma assessed as collagen-induced platelet aggregation at 1 uM incubated for 4 min prior to collagen-induction measured for 5.5 min by turbidometric analysis (reference value: 50 to 98%); format: functional
Platelet [13] = test: Antiaggregating activity in Homo sapiens (human) platelet rich plasma assessed as inhibition of collagen-induced platelet aggregation at 3 uM incubated for 4 min prior to collagen-induction measured for 5.5 min by turbidometric analysis; format: functional, cell-free
[14] = Antiaggregating activity in Homo sapiens (human) platelet rich plasma assessed as disaggregation of arachidonic acid-induced platelet aggregation at 0.06 uM incubated for 4 min prior to arachidonic acid-induction measured for 5.5 min by turbidometric analysis relative to control; format: functional
Platelet [15] = test: Antiaggregating activity in Homo sapiens (human) platelet rich plasma assessed as inhibition of arachidonic acid-induced platelet aggregation at 3 uM incubated for 4 min prior to arachidonic acid-induction measured for 5.5 min by turbidometric analysis; format: functional, cell-free
[16] = Antiaggregating activity in Homo sapiens (human) platelet rich plasma assessed as adrenaline-induced platelet aggregation at 1 uM incubated for 4 min prior to adrenaline-induction measured for 5.5 min by turbidometric analysis (reference value: 65 to 100%); format: functional
[17] = Antiaggregating activity in Homo sapiens (human) platelet rich plasma assessed as adrenaline-induced platelet aggregation at 2.5 uM incubated for 4 min prior to adrenaline-induction measured for 5.5 min by turbidometric analysis (reference value: 65 to 100%); format: functional
Platelet [18] = test: Antiaggregating activity in Homo sapiens (human) platelet rich plasma assessed as inhibition of ristocetin-induced platelet aggregation at 2.5 uM incubated for 4 min prior to ristocetin-induction measured for 5.5 min by turbidometric analysis; format: functional, cell-free
[19] = Antiaggregating activity in Homo sapiens (human) platelet rich plasma assessed as ADP-induced platelet aggregation at 2.5 uM incubated for 4 min prior to ADP-induction measured for 5.5 min by turbidometric analysis (reference value: 54 to 88%); format: functional
[20] = Antiaggregating activity in Homo sapiens (human) platelet rich plasma assessed as collagen-induced platelet aggregation at 2.5 uM incubated for 4 min prior to collagen-induction measured for 5.5 min by turbidometric analysis (reference value: 50 to 98%); format: functional
[21] = Antiaggregating activity in Homo sapiens (human) platelet rich plasma assessed as arachidonic acid-induced platelet aggregation at 1 uM incubated for 4 min prior to arachidonic acid-induction measured for 5.5 min by turbidometric analysis (reference value: 55 to 100%); format: functional
[22] = Antiaggregating activity in Homo sapiens (human) platelet rich plasma assessed as arachidonic acid-induced platelet aggregation at 0.6 uM incubated for 4 min prior to arachidonic acid-induction measured for 5.5 min by turbidometric analysis (reference value: 55 to 100%); format: functional

With Cl.O=C(c1cccnc1)N1CCN(c2ncccn2)CC1 the inhibition (Platelet [1]) was “Active”, the inhibition (Platelet [2]) was “Active” and the inhibition (Platelet [3]) was “Active”. For the same compound, the inhibition (Platelet [4]) was “Active”, the Activity [5] was 76% and the Activity [6] was 74%. The inhibition (Platelet [7]) was “Active”, the Activity [8] was 40% and the Activity [9] was 13%. The inhibition (Platelet [10]) was “Active”, the Activity [11] was 58% and the Activity [12] was 72%. The inhibition (Platelet [13]) was “Active”, the Activity [14] was 20% and the inhibition (Platelet [15]) was “Active”.

For O=C(c1ccc[n+](Cc2ccccc2)c1)N1CCN(c2ccccc2Cl)CC1.[Cl-], the Activity [16] was 75%, the Activity [17] was 12% and the inhibition (Platelet [18]) was “Active”. The Activity [6] was 89%, the Activity [19] was 83% and the Activity [9] was 83%. It also gave an Activity [20] of 82%, an Activity [12] of 80% and an Activity [21] of 67%. For the same compound, the Activity [22] was 53%.
